Assay results as given in PMC7442133, “Reduced treatment frequencies with bumped kinase inhibitor 1369 are effective against porcine cystoisosporosis” (International Journal for Parasitology: Drugs and Drug …, 2020).

Columns and labels:
[1] = Fecal drug kinetics: BKI concentrations in pooled feces by LC-MS/MS; type: in vivo, piglets
Protocol: Additionally, to determine exposure to BKI 1369 and its metabolites, BKI 1318 and BKI 1817, pooled fecal samples per group were collected before treatment (−24 h), 2, 24 and 48 h after treatment and at the end of the study (SD 29; experiment I). Approximately 1 g of feces was soaked overnight in 3 ml phosphate buffered saline (PBS, pH 7.4). The following day, 12 ml of acetonitrile containing 100 μM propanolol as an internal standard was added and the mixture was thoroughly vortexed and centrifuged at 1000×g for 30 min. Clear supernatant was then transferred to Eppendorf tubes and concentrated in a miVac® Duo Concentrator (SP Scientific, Pennsylvania, USA) at 35 °C. Control/blank samples spiked with known amounts of target analyte were processed in tandem to provide a standard curve. The concentrated samples were shipped to the University of Washington and were stored at −20 °C until analysis by liquid chromatography-tandem mass spectrometry (LC-MS/MS) to determine fecal pharmacokinetics. All LC-MS/MS analyses were carried out on a Waters Acquity UPLC coupled with a Xevo TQS Micro and analyzed using MassLynx software (Waters Corporation, Milford, MA, USA). Extraction and LC-MS/MS conditions are described in detail in the Supplementary File S1.
(§1) Tissue and feces from vehicle control treated piglets were used as blanks or standards. Calibration curves for BKI 1369, BKI 1318, and BKI 1817 were prepared by adding 2 μL BKI in dimethylsulfoxide (DMSO) to 18 μL tissue or feces controls to generate nominal concentrations of 0.004, 0.008, 0.02, 0.04, 0.08, 0.2, 0.4, 0.8, 2, 5, 10, and 20 μM. Calibration curves were generated separately for each tissue type and feces.
(§2) 5 μL of tissue homogenate curves and samples were added to tubes that contained 95 μL of 80:20 acetonitrile: water. As an internal standard, propranolol was added to each sample to a final concentration of 20 nM. Samples were dried to completion using a miVac Duo Concentrator (SP Scientific, Pennsylvania, USA) at 35 °C. Sample processing for feces was similar but utilized a slightly different process to concentrate the sample as explained in the methods. Dried Samples were sealed and shipped to the University of Washington for LC-MS/MS analysis.

[2] = set-up: species or system piglets; conditions: in vivo
Protocol: In experiment II, additional fecal samples were collected from piglets which shed oocysts after treatment with BKI 1369. Fecal DNA preparation was carried out by established procedures. PCR assays were used for the amplification of the genomic DNA fragments encoding CsCDPK1. PCR assays used primers upstream (166 and 91 base pairs of the start codon) and downstream (89 and 39 base pairs) of the CsCDPK1 stop codon fragment to generate templates for a subsequent nested run. Nested PCR amplification of the 5955 base pair fragment was achieved using the primer pair LIC_CsCDPK_Fwd: […] and LIC_CsCDPK_Rev: […]. PCR amplicons were cloned into TA TOPO 2 vectors (Invitrogen, Carlsbad, California, USA) and sequenced at GENEWIZ Inc. (Seattle, USA) to confirm the presence or absence of mutations that could affect drug sensitivity. Moreover, two piglets from each group were sacrificed at the end of the study (SD 29; 24 days after treatment) and tissue samples (liver, muscle, kidney, backfat, jejunum) were collected and processed similar to the fecal samples in experiment I, except that 20 nM propranolol was used as an internal standard instead of 100 μM, to determine residues of BKI 1369 and its metabolites.
as §1, §2

[3] = Group A (20 mg BKI 1369/kg BW; 0 dpi), SD 2, −24 h (before treatment)
[4] = Group A (20 mg BKI 1369/kg BW; 0 dpi), SD 3, 2 h post first-dose
[5] = Group A (20 mg BKI 1369/kg BW; 0 dpi), SD 4, 24 h post first-dose
[6] = Group A (20 mg BKI 1369/kg BW; 0 dpi), SD 5, 48 h post first-dose
[7] = Group A (20 mg BKI 1369/kg BW; 0 dpi), SD 29, 624 h post first-dose
[8] = Group A: single treatment 20 mg BKI 1369/kg on SD 3, pooled feces
[9] = Group A: single treatment 20 mg BKI 1369/kg on SD 3, pooled feces, post dose
[10] = Group B (20 mg BKI 1369/kg BW; 2 dpi), SD 4, −24 h (before treatment)
[11] = Group B (20 mg BKI 1369/kg BW; 2 dpi), SD 5, 2 h post first-dose
[12] = Group B (20 mg BKI 1369/kg BW; 2 dpi), SD 6, 24 h post first-dose
[13] = Group B (20 mg BKI 1369/kg BW; 2 dpi), SD 7, 48 h post first-dose
[14] = Group B (20 mg BKI 1369/kg BW; 2 dpi), SD 29, 576 h post first-dose
[15] = Group B: single treatment 20 mg BKI 1369/kg on SD 5, pooled feces
[16] = Group B: single treatment 20 mg BKI 1369/kg on SD 5, pooled feces, post-dose
[17] = Group C (20 mg BKI 1369/kg BW; 2 and 4 dpi), SD 4, −24 h (before treatment)
[18] = Group C (20 mg BKI 1369/kg BW; 2 and 4 dpi), SD 5, 2 h post first-dose
[19] = Group C (20 mg BKI 1369/kg BW; 2 and 4 dpi), SD 6, 24 h post first-dose
[20] = Group C (20 mg BKI 1369/kg BW; 2 and 4 dpi), SD 7, 48/2 h post 2nd dose
[21] = Group C (20 mg BKI 1369/kg BW; 2 and 4 dpi), SD 8, 72/24 h post 2nd dose
[22] = Group C (20 mg BKI 1369/kg BW; 2 and 4 dpi), SD 9, 96/48 h post 2nd dose
[23] = Group C (20 mg BKI 1369/kg BW; 2 and 4 dpi), SD 29, 576/528 h post 2nd dose
[24] = Group C: 20 mg BKI 1369/kg on SD 5 and SD 7, pooled feces, post first-dose

SMILES | Concentration in pooled fecal samples [1, 3] [nM] | Concentration in pooled fecal samples [1, 4] [nM] | Concentration in pooled fecal samples [1, 5] [nM] | Concentration in pooled fecal samples [1, 6] [nM] | Concentration in pooled fecal samples [1, 7] [nM] | Cmax [1, 8] [nM] | Fecal Tmax [1, 9] [h] | Concentration in pooled fecal samples [1, 10] [nM] | Concentration in pooled fecal samples [1, 11] [nM] | Concentration in pooled fecal samples [1, 12] [nM] | Concentration in pooled fecal samples [1, 13] [nM] | Concentration in pooled fecal samples [1, 14] [nM] | Cmax [1, 15] [nM] | Fecal Tmax [1, 16] [h] | Concentration in pooled fecal samples [1, 17] [nM] | Concentration in pooled fecal samples [1, 18] [nM] | Concentration in pooled fecal samples [1, 19] [nM] | Concentration in pooled fecal samples [1, 20] [nM] | Concentration in pooled fecal samples [1, 21] [nM] | Concentration in pooled fecal samples [1, 22] [nM] | also measured
CCOc1ccc2cc(-c3nn(CC4CCNCC4)c4ncnc(N)c34)ccc2n1 [BKI 1318] | 0 | 0 | 300 | 400 | 0 | 400 | 48 | 0 | 0 | 0 | 700 | 0 | 700 | 48 | 0 | 0 | 300 | 1900 | 3600 | 7000 | Concentration in pooled fecal samples [1, 23]: 300 nM; Cmax ([1]; Group C: 20 mg BKI 1369/kg on SD 5 and SD 7, pooled feces): 7000 nM; Fecal Tmax [1, 24]: 96 h; Excretion via the feces (in words) ([1]; after oral BKI 1369, piglets): relatively low excretion via the feces; Residue in liver [2]: -Samples above LoQ BKI 1318: N/A -Samples above background, but below LoQ BKI 1318: liver from piglet 304 and muscle from piglet 302
CCOc1ccc2cc(-c3nn(CC4CCN(C)CC4)c4ncnc(N)c34)ccc2n1 [BKI 1369] | 0 | 800 | 8100 | 5500 | 0 | 8100 | 24 | 0 | 0 | 800 | 3000 | 0 | 3000 | 48 | 0 | 0 | 4500 | 37000 | 19700 | 29200 | Concentration in pooled fecal samples [1, 23]: 0 nM; Fecal Tmax [1, 24]: 48 h; Time of fecal peak, in general ([1]; all groups, metabolite levels continued to rise beyond 48 h): 24 to 48 h; Quantifiable residue values, all tissue types [2]: below 0.2 μM; Residue in fat [2]: above background, but below LoQ; Residue in jejunum [2]: above background, but below LoQ
